Biological target: T1, Caspase-1 (Homo sapiens, UniProt P29466)
T1 sequence (P29466 whole entry): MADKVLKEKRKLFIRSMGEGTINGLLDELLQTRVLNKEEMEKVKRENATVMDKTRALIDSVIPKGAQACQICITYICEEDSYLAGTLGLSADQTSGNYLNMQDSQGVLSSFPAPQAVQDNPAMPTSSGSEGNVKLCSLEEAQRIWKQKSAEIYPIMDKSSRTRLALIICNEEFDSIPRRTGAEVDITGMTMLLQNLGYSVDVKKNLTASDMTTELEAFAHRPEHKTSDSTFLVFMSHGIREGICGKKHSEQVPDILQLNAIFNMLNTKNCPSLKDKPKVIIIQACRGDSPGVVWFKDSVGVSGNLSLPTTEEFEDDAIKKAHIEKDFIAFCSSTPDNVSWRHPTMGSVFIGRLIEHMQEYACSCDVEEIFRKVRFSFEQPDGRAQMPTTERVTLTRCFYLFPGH
Test: The compound was tested for its inhibitory activity against IL-1 beta converting enzyme

| Ki [µM] | Structure (SMILES) |
| --- | --- |
| 42 | CC(C)[C@H](NC(=O)CCCCc1ccccc1)C(=O)N[C@@H](C)C(=O)NC(CC(=O)O)C(=O)C(F)(F)CCCc1ccccc1 (some centres not stated) |
| 6 | CC(C)[C@H](NC(=O)CCc1ccccc1)C(=O)N[C@@H](C)C(=O)NC(CC(=O)O)C(=O)C(F)(F)CCCc1ccccc1 (some centres not stated) |

— ChEMBL document CHEMBL1127161, “Synthesis of a peptidyl 2,2-difluoro-4-phenylbutyl ketone and its evaluation as an inhibitor of interleukin-1 converting enzyme” (Bioorg Med Chem Lett, 1993)
